Data as given in patent publication US12497393B2, “β-lactam compound, use thereof and preparation method therefor” (priority 2020, dated 2025).
Converted amounts (≈) assume the structure as drawn. Read-outs that look alike come from different tables or passages of the source.

Columns and labels:
Experiment in all cases: Antibacterial activity MIC assay (two-fold dilution agar plating)
Format in all cases: cell-based
Proteus vulgaris = conditions: Proteus vulgaris, ATCC29905, Proteus vulgaris ATCC 29905; read-out: Minimal Inhibitory Concentration (MIC)
Experimental: (§1) Antibacterial Activity-Evaluating Method (MIC Assay)
(§2) In this study, the compounds of the present invention were tested for their antibacterial activities by using two-fold dilution agar plating method and Denley Multipoint Inoculator A400 according to the guidelines of the CLSI/NCCLS standard. The tested strains were amplified by hydrolyzed casein peptone (Mueller-Hinton Agar) broth and Brain and Heart Infusion. The strains used in this study were bacterial strains that were purchased from ATCC or clinically isolated in Chinese hospitals. Aztreonam, polymyxin or levofloxacin was used as positive control. The drugs were diluted with hydrolyzed casein peptone broth to the desired concentrations including 128.0, 64.0, 32.0, 16.0, 8.0, 4.0, 2.0, 1.0, 0.5, 0.25, 0.125, 0.06 and 0.03 μg/mL, and then placed respectively into each well and mixed thoroughly. After inoculation, the tested strains were incubated for 18 hours at a constant temperature of 35° C., and their growth levels were observed. The drug concentration with no microbial growth in the well was recorded as the lowest Minimal Inhibitory Concentration (MIC).

Providencia rettgeri = conditions: Providencia rettgeri, ATCC31052, Providencia rettgeri ATCC 31052; read-out: Minimal Inhibitory Concentration (MIC)
Experimental: as §1, §2

Escherichia coli = conditions: Escherichia coli, read-out: Minimal Inhibitory Concentration (MIC)
Experimental: as §1, §2

Shigella flexneri = conditions: ATCC12022; Shigella flexneri ATCC 12022; read-out: Minimal Inhibitory Concentration (MIC)
Experimental: as §1, §2

Acinetobacter baumannii = conditions: Acinetobacter baumannii, read-out: Minimal Inhibitory Concentration (MIC)
Experimental: as §1, §2

Klebsiella Pneumoniae = conditions: Klebsiella pneumoniae, read-out: Minimal Inhibitory Concentration (MIC)
Experimental: as §1, §2

Citrobacter freundii = conditions: ATCC43864; Citrobacter freundii ATCC 43864; read-out: Minimal Inhibitory Concentration (MIC)
Experimental: as §1, §2

Salmonella typhi = conditions: Salmonella enterica, TYPHI, read-out: Minimal Inhibitory Concentration (MIC)
Experimental: as §1, §2

Proteus mirabilis = conditions: Proteus mirabilis, ATCC49565, Proteus mirabilis ATCC 49565; read-out: Minimal Inhibitory Concentration (MIC)
Experimental: as §1, §2

Serratia marcescens = conditions: ATCC21074; Serratia marcescens ATCC 21074; read-out: Minimal Inhibitory Concentration (MIC)
Experimental: as §1, §2

Enterobacter cloacae = conditions: read-out: Minimal Inhibitory Concentration (MIC)
Experimental: as §1, §2

Enterobacter aerogenes = conditions: Klebsiella aerogenes, ATCC13048; Enterobacter aerogenes ATCC 13048; read-out: Minimal Inhibitory Concentration (MIC)
Experimental: as §1, §2

[1] = system: Stenotrophomonas maltophilia; conditions: ATCC13636; Stenotrophomonas maltophilia ATCC 13636; read-out: Minimal Inhibitory Concentration (MIC)
Experimental: as §1, §2

Pseudomonas aeruginosa = conditions: read-out: Minimal Inhibitory Concentration (MIC)
Experimental: as §1, §2

[2] = ATCC25922, Escherichia coli ATCC 25922, ESBLs(−)
[3] = ATCC35218, Escherichia coli ATCC 35218, ESBLs(+)
[4] = Escherichia coli 08-85, mcr-1(+)
[5] = Escherichia coli 13-43, mcr-1(+)
[6] = Escherichia coli 13-66, mcr-1(+)
[7] = Escherichia coli 16-1, ESBLs(+)
[8] = Escherichia coli 16-7, ESBLs(−)
[9] = Escherichia coli 17-R28, CRE, NDM-1(+)
[10] = Escherichia coli CDC1001728, NDM-1(+)
[11] = ATCC19606, Acinetobacter baumannii ATCC 19606
[12] = ATCC700603, Klebsiella Pneumoniae ATCC 700603, ESBLs(+)
[13] = ATCCBAA2146, Klebsiella Pneumoniae ATCC BAA-2146, NDM-1(+)
[14] = Klebsiella Pneumoniae 09-20, mcr-1(+)
[15] = Klebsiella Pneumoniae 16-2, ESBLs(−)
[16] = Klebsiella Pneumoniae 16-14, ESBLs(+)
[17] = Klebsiella Pneumoniae 17-R27, CRE
[18] = ATCC43560, Enterobacter cloacae ATCC 43560
[19] = Enterobacter cloacae CDC1000654
[20] = ATCC27853, Pseudomonas aeruginosa ATCC 27853

Structure (SMILES) | MIC (Proteus vulgaris) | MIC (Providencia rettgeri) | MIC (Escherichia coli; [2]) | MIC (Escherichia coli; [3]) | MIC (Escherichia coli; [4]) | MIC (Escherichia coli; [5]) | MIC (Escherichia coli; [6]) | MIC (Escherichia coli; [7]) | MIC (Escherichia coli; [8]) | MIC (Escherichia coli; [9]) | MIC (Escherichia coli; [10]) | MIC (Shigella flexneri) | MIC (Acinetobacter baumannii; [11]) | MIC (Acinetobacter baumannii; Acinetobacter baumannii 16-16) | MIC (Acinetobacter baumannii; Acinetobacter baumannii 16-33) | MIC (Klebsiella Pneumoniae; [12]) | MIC (Klebsiella Pneumoniae; [13]) | MIC (Klebsiella Pneumoniae; [14]) | MIC (Klebsiella Pneumoniae; [15]) | MIC (Klebsiella Pneumoniae; [16]) | other results
CC1(C)[C@H](NC(=O)/C(=N\OC2(C(=O)O)CCC2)c2csc(N)n2)C(=O)N1OS(=O)(=O)O [Compound A-2] | ≤ 0.03 µg/mL | ≤ 0.03 µg/mL | 0.12 µg/mL (≈ 0.251 µM) | 0.06 µg/mL (≈ 0.126 µM) | 0.12 µg/mL (≈ 0.251 µM) | 0.12 µg/mL (≈ 0.251 µM) | 0.12 µg/mL (≈ 0.251 µM) | 0.06 µg/mL (≈ 0.126 µM) | 0.12 µg/mL (≈ 0.251 µM) | 16 µg/mL (≈ 33.5 µM) | 0.5 µg/mL (≈ 1.05 µM) | 0.25 µg/mL (≈ 0.524 µM) | 16 µg/mL (≈ 33.5 µM) | > 64 µg/mL | 16 µg/mL (≈ 33.5 µM) | 1 µg/mL (≈ 2.09 µM) | 0.25 µg/mL (≈ 0.524 µM) | 0.12 µg/mL (≈ 0.251 µM) | 2 µg/mL (≈ 4.19 µM) | 0.12 µg/mL (≈ 0.251 µM) | MIC (Klebsiella Pneumoniae; [17]): 0.25 µg/mL (≈ 0.524 µM); MIC (Citrobacter freundii): 0.12 µg/mL (≈ 0.251 µM); MIC (Salmonella typhi): 0.12 µg/mL (≈ 0.251 µM); MIC (Proteus mirabilis): ≤ 0.03 µg/mL; MIC (Serratia marcescens): 0.25 µg/mL (≈ 0.524 µM); MIC (Enterobacter cloacae; [18]): 0.12 µg/mL (≈ 0.251 µM); MIC (Enterobacter cloacae; [19]): 2 µg/mL (≈ 4.19 µM); MIC (Enterobacter aerogenes): 1 µg/mL (≈ 2.09 µM); MIC [1]: 4 µg/mL (≈ 8.38 µM); MIC (Pseudomonas aeruginosa; [20]): 4 µg/mL (≈ 8.38 µM); MIC (Pseudomonas aeruginosa; Pseudomonas aeruginosa 16-11): 4 µg/mL (≈ 8.38 µM); MIC (Pseudomonas aeruginosa; Pseudomonas aeruginosa PAO1): 1 µg/mL (≈ 2.09 µM)
CC1(C)[C@H](NC(=O)/C(=N\OC2(C(=O)O)CCCC2)c2csc(N)n2)C(=O)N1OS(=O)(=O)O [Compound A-3] | ≤ 0.03 µg/mL | ≤ 0.03 µg/mL | 0.25 µg/mL (≈ 0.509 µM) | 0.25 µg/mL (≈ 0.509 µM) | 0.25 µg/mL (≈ 0.509 µM) | 0.5 µg/mL (≈ 1.02 µM) | 0.25 µg/mL (≈ 0.509 µM) | 0.25 µg/mL (≈ 0.509 µM) | 0.5 µg/mL (≈ 1.02 µM) | 8 µg/mL (≈ 16.3 µM) | 0.5 µg/mL (≈ 1.02 µM) | 0.25 µg/mL (≈ 0.509 µM) | 32 µg/mL (≈ 65.1 µM) | > 64 µg/mL | 32 µg/mL (≈ 65.1 µM) | 1 µg/mL (≈ 2.03 µM) | 0.5 µg/mL (≈ 1.02 µM) | 0.25 µg/mL (≈ 0.509 µM) | 2 µg/mL (≈ 4.07 µM) | 0.5 µg/mL (≈ 1.02 µM) | MIC (Klebsiella Pneumoniae; [17]): 0.25 µg/mL (≈ 0.509 µM); MIC (Citrobacter freundii): 0.25 µg/mL (≈ 0.509 µM); MIC (Salmonella typhi): 0.5 µg/mL (≈ 1.02 µM); MIC (Proteus mirabilis): 0.06 µg/mL (≈ 0.122 µM); MIC (Serratia marcescens): 0.5 µg/mL (≈ 1.02 µM); MIC (Enterobacter cloacae; [18]): 0.5 µg/mL (≈ 1.02 µM); MIC (Enterobacter cloacae; [19]): 4 µg/mL (≈ 8.14 µM); MIC (Enterobacter aerogenes): 0.5 µg/mL (≈ 1.02 µM); MIC [1]: 4 µg/mL (≈ 8.14 µM); MIC (Pseudomonas aeruginosa; [20]): 4 µg/mL (≈ 8.14 µM); MIC (Pseudomonas aeruginosa; Pseudomonas aeruginosa 16-11): 4 µg/mL (≈ 8.14 µM); MIC (Pseudomonas aeruginosa; Pseudomonas aeruginosa PAO1): 2 µg/mL (≈ 4.07 µM)
CC(C)[C@H](O/N=C(\C(=O)N[C@@H]1C(=O)N(OS(=O)(=O)O)C1(C)C)c1csc(N)n1)C(=O)O [Compound A-4] | ≤ 0.03 µg/mL | ≤ 0.03 µg/mL | 0.25 µg/mL (≈ 0.521 µM) | 0.12 µg/mL (≈ 0.25 µM) | 0.25 µg/mL (≈ 0.521 µM) | 0.25 µg/mL (≈ 0.521 µM) | 0.25 µg/mL (≈ 0.521 µM) | 0.12 µg/mL (≈ 0.25 µM) | 0.25 µg/mL (≈ 0.521 µM) | 8 µg/mL (≈ 16.7 µM) | 0.5 µg/mL (≈ 1.04 µM) | 0.25 µg/mL (≈ 0.521 µM) | 64 µg/mL (≈ 133 µM) | > 64 µg/mL | 32 µg/mL (≈ 66.7 µM) | 2 µg/mL (≈ 4.17 µM) | 0.5 µg/mL (≈ 1.04 µM) | 0.12 µg/mL (≈ 0.25 µM) | 1 µg/mL (≈ 2.09 µM) | 0.25 µg/mL (≈ 0.521 µM) | MIC (Klebsiella Pneumoniae; [17]): 0.25 µg/mL (≈ 0.521 µM); MIC (Citrobacter freundii): 0.12 µg/mL (≈ 0.25 µM); MIC (Salmonella typhi): 0.12 µg/mL (≈ 0.25 µM); MIC (Proteus mirabilis): ≤ 0.03 µg/mL; MIC (Serratia marcescens): 0.25 µg/mL (≈ 0.521 µM); MIC (Enterobacter cloacae; [18]): 0.12 µg/mL (≈ 0.25 µM); MIC (Enterobacter cloacae; [19]): 1 µg/mL (≈ 2.09 µM); MIC (Enterobacter aerogenes): 0.5 µg/mL (≈ 1.04 µM); MIC [1]: 8 µg/mL (≈ 16.7 µM); MIC (Pseudomonas aeruginosa; [20]): 8 µg/mL (≈ 16.7 µM); MIC (Pseudomonas aeruginosa; Pseudomonas aeruginosa 16-11): 8 µg/mL (≈ 16.7 µM); MIC (Pseudomonas aeruginosa; Pseudomonas aeruginosa PAO1): 4 µg/mL (≈ 8.34 µM)
CC(C)[C@@H](O/N=C(\C(=O)N[C@@H]1C(=O)N(OS(=O)(=O)O)C1(C)C)c1csc(N)n1)C(=O)O [Compound A-5] | 4 µg/mL (≈ 8.34 µM) | 4 µg/mL (≈ 8.34 µM) | 16 µg/mL (≈ 33.4 µM) | 16 µg/mL (≈ 33.4 µM) | 32 µg/mL (≈ 66.7 µM) | 32 µg/mL (≈ 66.7 µM) | 16 µg/mL (≈ 33.4 µM) | 8 µg/mL (≈ 16.7 µM) | 32 µg/mL (≈ 66.7 µM) | > 64 µg/mL | 32 µg/mL (≈ 66.7 µM) | 64 µg/mL (≈ 133 µM) | > 64 µg/mL | > 64 µg/mL | > 64 µg/mL | 64 µg/mL (≈ 133 µM) | > 64 µg/mL | 16 µg/mL (≈ 33.4 µM) | 32 µg/mL (≈ 66.7 µM) | 16 µg/mL (≈ 33.4 µM) | MIC (Klebsiella Pneumoniae; [17]): 32 µg/mL (≈ 66.7 µM); MIC (Citrobacter freundii): 16 µg/mL (≈ 33.4 µM); MIC (Salmonella typhi): 32 µg/mL (≈ 66.7 µM); MIC (Proteus mirabilis): 1 µg/mL (≈ 2.09 µM); MIC (Serratia marcescens): 32 µg/mL (≈ 66.7 µM); MIC (Enterobacter cloacae; [18]): 16 µg/mL (≈ 33.4 µM); MIC (Enterobacter cloacae; [19]): > 64 µg/mL; MIC (Enterobacter aerogenes): 32 µg/mL (≈ 66.7 µM); MIC [1]: > 64 µg/mL; MIC (Pseudomonas aeruginosa; [20]): > 64 µg/mL; MIC (Pseudomonas aeruginosa; Pseudomonas aeruginosa 16-11): > 64 µg/mL; MIC (Pseudomonas aeruginosa; Pseudomonas aeruginosa PAO1): > 64 µg/mL
